Results: US8017350B2, “Glimepiride- and insulin-induced glycosylphosphatidylinositol-specific phospholipase C regulation” (Sanofi-Aventis Deutschland GmbH, priority 2004, dated 2011)

Key:
[1] = target: T1, porcine pancreatic lipase (PL) (Sus scrofa, UniProt P00591); experiment: pancreatic lipase assay (tributyrin, pH stat); format: biochemical; conditions: 50 μM
T1 construct: crude porcine pancreatic lipase (PL); purchased SigmalAldrich (Deisenhofen, Germany); host or cells: porcine pancreas (crude preparation)
T1 sequence (P00591 whole entry): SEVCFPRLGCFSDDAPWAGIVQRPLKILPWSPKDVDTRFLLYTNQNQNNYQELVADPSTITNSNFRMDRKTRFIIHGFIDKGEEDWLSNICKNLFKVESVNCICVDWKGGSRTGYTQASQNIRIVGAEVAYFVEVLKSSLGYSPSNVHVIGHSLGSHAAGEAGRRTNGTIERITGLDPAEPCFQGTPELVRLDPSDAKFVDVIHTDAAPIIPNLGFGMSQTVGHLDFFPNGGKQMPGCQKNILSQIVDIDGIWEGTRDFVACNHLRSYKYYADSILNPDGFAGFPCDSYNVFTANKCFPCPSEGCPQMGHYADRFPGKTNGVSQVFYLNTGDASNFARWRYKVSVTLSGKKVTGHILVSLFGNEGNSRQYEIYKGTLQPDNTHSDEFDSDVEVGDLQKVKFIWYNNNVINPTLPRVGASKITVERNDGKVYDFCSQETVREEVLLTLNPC
T1 sequence (P02703 23-112 partner): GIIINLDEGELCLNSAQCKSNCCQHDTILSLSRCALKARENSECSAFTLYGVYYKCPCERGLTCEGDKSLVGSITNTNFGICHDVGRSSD
Experimental: (§1) Hormone-sensitive lipase (HSL) and lipoprotein lipase (LPL) were measured using a radiolabeled triolein droplet emulsion as described in “Vertesy et al., (2002) Journal Antibiotics 55:480-494”. Pancreatic lipase (PL) was determined by incubation of 0.25 mmol tributyrin in 2 ml of 5 mM Tris/HCl (pH 6.5), 6 mM sodium taurodeoxycholate, 150 mM NaCl, 1 mM CaCl2 with porcine PL and colipase in the same buffer using a recording pH stat (stirring at 1000 rpm at 25° C.) with the pH adjusted to 6.5. PC-PLC was assayed by incubation of 0.2 ml of 10 mM dipalmitoyllecithin, 0.1 ml of 10 mM SDC and 0.1 ml of 0.03 M CaCl2 with bacterial PC-PLC (in 50 mM Tris/HCl, pH 7.5, 0.1% BSA) for 10 min at 37° C. The reaction was terminated by addition of 0.1 ml of 50% TCA and subsequently of 2.5 ml of […]. After centrifugation (1500×g, 15 min), 0.2-ml portions of the upper methanol/water phase (˜1.33 ml) were removed, supplemented with 0.5 ml of 60% HClO4, then heated at 170° C. for 1 h and finally analyzed for inorganic phosphate. Mammalian PI-PLC was measured by incubation of 0.1 ml of 10 mM PI, 0.1 ml of 0.8% sodium deoxycholate, 0.1% BSA, 0.2 ml of 100 mM sodium borate (pH 7.5) and rat liver PI-PLC for 20 min at 37° C. The reaction was terminated and further processed as described for the PC-PLC. […] Radioactive phosphatidic acid was detected by phosphorimaging. […]

[2] = tested on: GPI-proteins 5′-Nuc, Gce1 and aP in isolated rat adipocytes; experiment: localization of lipolytically cleaved and uncleaved GPI-proteins at hcDIGs, IcDIGs and total plasma membranes (TX-114 partitioning); format: cell-based
[3] = tested on: Hormone-sensitive lipase (HSL); experiment: hormone-sensitive lipase assay (radiolabeled triolein emulsion); format: biochemical; conditions: 50 μM
Experimental: as §1

[4] = target: T2, bacterial PC-PLC (Bacillus cereus) (Bacillus cereus, UniProt P09598); experiment: PC-PLC assay (dipalmitoyllecithin); format: biochemical; conditions: 50 μM
T2 construct: purchased SigmalAldrich (Deisenhofen, Germany)
T2 sequence (P09598 39-283 limits assumed): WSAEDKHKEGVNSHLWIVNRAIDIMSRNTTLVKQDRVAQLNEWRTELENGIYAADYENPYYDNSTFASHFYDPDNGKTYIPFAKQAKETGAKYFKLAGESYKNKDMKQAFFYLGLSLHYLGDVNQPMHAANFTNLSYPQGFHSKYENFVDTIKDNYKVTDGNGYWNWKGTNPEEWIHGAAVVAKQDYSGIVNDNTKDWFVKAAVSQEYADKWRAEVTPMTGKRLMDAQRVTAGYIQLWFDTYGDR
Experimental: as §1

[5] = amphiphilic version in hcDIGs of basal adipocytes set at 100, GPI-2350 50 μM, insulin 10 nM, glimepiride 20 μM

## CCCCCCCCCCCCP1(=O)O[C@@H]2[C@H](O)[C@@H](O)[C@H](O)[C@@H](O)[C@@H]2O1 (stereo partly drawn) [GPI-2350, myo-inositol-1,2-cyclo-dodecylphosphonic acid]
[1]
  effect on PL: not significantly affected
[2]; 50 μM
  effect on insulin/glimepiride-induced increase in hydrophilic GPI-proteins in plasma membranes: completely blocked
[2]; [5]
  aP hydroph. IcDIGs: 2 ± 2 arb. units
  aP hydroph. hcDIGs: 10 ± 1 arb. units
[3]
  effect on HSL: not significantly affected
[4]
  effect on PC-PLC: not significantly affected
